According to patent US9982005B2, “Macrolides and methods of their preparation and use” (President and Fellows of Harvard College, priority 2013, dated 2018):
≈ marks a conversion by molar mass, not a printed value. Read-outs that look alike come from different tables or passages of the source.

Tests used:
[1] = test system: panels of Gram-positive bacteria; conditions: fluorine atom at position C2; cited from earlier work
[2] = test system: SA1708 S. aureus ermA positive msrA negative; assay: broth dilution MIC, S. aureus SA1708; assay type: cell-based; conditions: Staphylococcus aureus
Method in brief: (§1)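 Read-out is the minimum inhibitory concentration, obtained by broth dilution per CLSI standards. The strain panel included multidrug-resistant isolates carrying macrolide-resistance genotypes, which may be constitutive or inducible.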

[3] = test system: BS1723 B. subtilis BS168 WT wild type; assay: broth dilution MIC, B. subtilis BS1723; assay type: cell-based; conditions: Bacillus subtilis, BS1723 B. subtilis BS168 WT wild type; read-out: MIC
Method in brief: as §1

[4] = test system: S. aureus (Newman, clinical isolate); assay: MIC, S. aureus Newman; assay type: cell-based; conditions: Staphylococcus aureus, S. aureus (Neuman, clinical isolate), round 2
Method in brief: as §1

[5] = test system: SA557 S. aureus ermA unknown msrA positive; assay: broth dilution MIC, S. aureus SA557; assay type: cell-based; conditions: Staphylococcus aureus; SA557 S. aureus ermA unknown msrA positive; read-out: MIC
Method in brief: as §1

[6] = test system: S. aureus strains; assay: MIC against S. aureus strains (Table M7); assay type: cell-based; conditions: for MIC: Staphylococcus aureus
Method in brief: as §1

[7] = test system: SA506 S. aureus ermA positive msrA unknown; assay: broth dilution MIC, S. aureus SA506; assay type: cell-based; conditions: Staphylococcus aureus
Method in brief: as §1

[8] = test system: E. coli (MC4100); assay: MIC, E. coli MC4100; assay type: cell-based; conditions: Escherichia coli, round 2, read-out: MIC
Method in brief: as §1

[9] = test system: Spn1537 S. pneumoniae ermB positive mefA positive; assay: broth dilution MIC, S. pneumoniae Spn1537; assay type: cell-based; conditions: Streptococcus pneumoniae
Method in brief: as §1

[10] = test system: Spn1427 S. pneumoniae ermB positive mefA negative; assay: broth dilution MIC, S. pneumoniae Spn1427; assay type: cell-based; conditions: Streptococcus pneumoniae
Method in brief: as §1

[11] = test system: Spn160 S. pneumoniae ermB unknown mefA positive; assay: broth dilution MIC, S. pneumoniae Spn160; assay type: cell-based; conditions: Streptococcus pneumoniae; Spn160 S. pneumoniae ermB unknown mefA positive; read-out: MIC
Method in brief: as §1

[12] = test system: HI281 H. influenzae; assay: broth dilution MIC, H. influenzae HI281; assay type: cell-based; conditions: Haemophilus influenzae
Text: We have collected MIC data for a total of 50 novel macrolides that this platform has produced against over 21 unique strains of B. subtilis, E. coli, S. aureus, S. pneumoniae, and H. influenzae, including several multidrug-resistant strains, with a special focus on macrolide resistant mechanisms (vide supra). Azithromycin was included as a control macrolide. CLSI standard procedures for broth dilution MIC determination were used. […] These genotypes can be constitutive or inducible. The finding that C4-epi (unnatural) isomers of the “azaketolide” macrolide class have enhanced activities relative to C4 natural isomers is very exciting.

[13] = test system: EC107 E. coli ATCC25922; assay: broth dilution MIC, E. coli EC107; assay type: cell-based; conditions: Escherichia coli, read-out: MIC
Method in brief: as §1

[14] = test system: E. faecalis strains; assay: MIC against E. faecalis strains (Table M8); assay type: cell-based
[15] = test system: BS1725 B. subtilis ermC; assay: broth dilution MIC, B. subtilis BS1725; assay type: cell-based; conditions: Bacillus subtilis
Method in brief: as §1

[16] = test system: Spn 106 S. pneumonia ATCC49619; assay: broth dilution MIC, S. pneumoniae Spn 106; assay type: cell-based; conditions: Streptococcus pneumoniae, ATCC49619
Method in brief: as §1

[17] = test system: S. pneumoniae strains; assay: MIC against S. pneumoniae strains (Tables M7, M8); assay type: cell-based; conditions: Streptococcus pneumoniae
Text: CLSI standard procedures for broth dilution MIC determination were used. […] These genotypes can be constitutive or inducible.

[18] = test system: SA1707 S. aureus ermA negative msrA positive; assay: broth dilution MIC, S. aureus SA1707; assay type: cell-based; conditions: Staphylococcus aureus
Method in brief: as §1

[19] = test system: EC878 E. coli tolC; assay: broth dilution MIC, E. coli EC878; assay type: cell-based; conditions: Escherichia coli
Method in brief: as §1

[20] = test system: EC882 E. coli imp; assay: broth dilution MIC, E. coli EC882; assay type: cell-based; conditions: Escherichia coli
Method in brief: as §1

[21] = test system: H. influenzae strains; assay: MIC against H. influenzae strains (Table M8); assay type: cell-based; conditions: Haemophilus influenzae
Method in brief: as §1

[22] = test system: SA183 S. aureus ermA positive msrA unknown; assay: broth dilution MIC, S. aureus SA183; assay type: cell-based; conditions: Staphylococcus aureus
Method in brief: as §1

[23] = test system: E. coli strains; assay: MIC against E. coli strains (Table M7); assay type: cell-based; conditions: Escherichia coli, ATCC25922, E. coli ATCC 25922
Method in brief: as §1

[24] = test system: Spn1509 S. pneumoniae ermB positive mefA negative; assay: broth dilution MIC, S. pneumoniae Spn1509; assay type: cell-based; conditions: Streptococcus pneumoniae
Method in brief: as §1

[25] = test system: HI175 H. influenzae ATCC49247; assay: broth dilution MIC, H. influenzae HI175; assay type: cell-based; conditions: Haemophilus influenzae
Method in brief: as §1

[26] = test system: SA418 S. aureus ermA negative msrA positive; assay: broth dilution MIC, S. aureus SA418; assay type: cell-based; conditions: Staphylococcus aureus
Method in brief: as §1

[27] = test system: Spn1533 S. pneumoniae ermB positive mefA positive; assay: broth dilution MIC, S. pneumoniae Spn1533; assay type: cell-based; conditions: Streptococcus pneumoniae
Method in brief: as §1

[28] = test system: K. pneumoniae strains; assay: MIC against K. pneumoniae strains (Table M8); assay type: cell-based; conditions: Klebsiella pneumoniae, K. pneumoniae 10031
[29] = test system: SA101 S. aureus ATCC29213; assay: broth dilution MIC, S. aureus SA101; assay type: cell-based; conditions: Staphylococcus aureus, ATCC29213, SA101 S. aureus ATCC29213; read-out: MIC
Method in brief: as §1

[30] = ester bond

CC[C@H]1OC(=O)[C@@](C)(F)C(=O)[C@H](C)[C@@H](O[C@@H]2O[C@H](C)C[C@H](N(C)C)[C@H]2O)[C@](C)(OC)C[C@@H](C)C(=O)[C@H](C)[C@H]2N(CCCCn3cc(-c4cccc(N)c4)nn3)C(=O)O[C@]12C [solithromycin]
increase in activity versus the non-fluorinated molecule [1]: 4- to 16 fold

CC[C@H]1OC(=O)[C@H](C)[C@@H](O[C@H]2C[C@@](C)(OC)[C@@H](O)[C@H](C)O2)[C@H](C)[C@@H](O[C@@H]2O[C@H](C)C[C@H](N(C)C)[C@H]2O)[C@](C)(O)C[C@@H](C)CN(C)[C@H](C)[C@@H](O)[C@]1(C)O [Azithromycin, reference compound]
MIC [2]: > 32 µg/mL
MIC [3]: 0.5 µg/mL (≈ 0.668 µM)
MIC [4]: 1 µg/mL (≈ 1.34 µM)
MIC [5]: > 32 µg/mL
MIC S. aureus (ATCC 29213) ([6]; S. aureus ATCC 29213): 1 µg/mL (≈ 1.34 µM)
MIC ([6]; ATCC29213, S. aureus ATCC 29213, read-out: MIC S. aureus (ATCC 29213)): 2 µg/mL (≈ 2.67 µM)
MIC ([6]; S. aureus 183, read-out: MIC S. aureus (183)): > 32 µg/mL
MIC ([6]; S. aureus 506, read-out: MIC S. aureus (506)): > 32 µg/mL
MIC ([6]; S. aureus 1708, read-out: MIC S. aureus (1708)): > 32 µg/mL
MIC ([6]; USA300, S. aureus USA300, read-out: MIC S. aureus (USA300)): > 32 µg/mL
MIC [7]: > 32 µg/mL
MIC [8]: 8 µg/mL (≈ 10.7 µM)
MIC [9]: > 32 µg/mL
MIC [10]: > 32 µg/mL
MIC [11]: 2 µg/mL (≈ 2.67 µM)
MIC [12]: 4 µg/mL (≈ 5.34 µM)
MIC [13]: 4 µg/mL (≈ 5.34 µM)
MIC E. faecalis (29212) [14]: 16 µg/mL (≈ 21.4 µM)
MIC ([14]; Enterococcus faecalis, E. faecalis 29212): 8 µg/mL (≈ 10.7 µM)
MIC ([15]; BS1725 B. subtilis ermC (+ery)): > 32 µg/mL
MIC ([15]; BS1725 B. subtilis ermC (−ery)): > 32 µg/mL
MIC [16]: 0.0625 µg/mL (≈ 0.0834 µM)
MIC ([17]; S. pneumoniae 160, read-out: MIC S. pneumonae (160)): 2 µg/mL (≈ 2.67 µM)
MIC ([17]; S. pneumoniae 1509, read-out: MIC S. pneumoniae (1509)): > 32 µg/mL
MIC ([17]; S. pneumoniae 1533, read-out: MIC S. pneumoniae (1533)): > 32 µg/mL
MIC ([17]; S. pneumoniae 1537, read-out: MIC S. pneumoniae (1537)): > 32 µg/mL
MIC [18]: > 32 µg/mL
MIC [19]: 0.5 µg/mL (≈ 0.668 µM)
MIC [20]: 0.0625 µg/mL (≈ 0.0834 µM)
MIC ([21]; H. influenzae 49247, read-out: MIC H. influenzae (49247)): 0.25 µg/mL (≈ 0.334 µM)
MIC ([21]; H. influenzae 49766, read-out: MIC H. influenzae (49766)): 2 µg/mL (≈ 2.67 µM)
MIC [22]: > 32 µg/mL
MIC [23]: 8 µg/mL (≈ 10.7 µM)
MIC [24]: > 32 µg/mL
MIC [25]: 2 µg/mL (≈ 2.67 µM)
MIC [26]: > 32 µg/mL
MIC [27]: > 32 µg/mL
MIC [28]: 2 µg/mL (≈ 2.67 µM)
MIC [29]: 1 to 2 µg/mL (≈ 1.34 to 2.67 µM)

CC[C@H]1OC(=O)CC(=O)[C@H](C)[C@@H](O[C@@H]2OC(C)CC(N(C)C)C2OC(=O)OC)[C@](C)(OC)C[C@@H](C)CN[C@H](C)[C@H]2N(CCCCN=[N+]=[N-])C(=O)O[C@]12C (stereo partly drawn)
ring closure, yield of all isomers ([30]; from CC[C@@H](O)[C@@]1(C)OC(=O)N(CCCCN=[N+]=[N-])[C@@H]1[C@@H](C)NC[C@H](C)C[C@@](C)(OC)[C@H](O[C@@H]1OC(C)CC(N(C)C)C1OC(=O)OC)[C@@H](C)C(=O)CC(=O)OC(C)(C)C, benzene, 9.08 mM, 80.0 °C, 12.0 h): 84%

CC[C@H]1OC(=O)[C@H](C)C(=O)[C@H](C)[C@@H](O[C@@H]2OC(C)CC(N(C)C)C2OC(=O)OC)[C@](C)(OC)C[C@@H](C)CN[C@H](C)[C@H]2N(CCCCN=[N+]=[N-])C(=O)O[C@]12C (stereo partly drawn)
ring closure, yield of all isomers ([30]; from CC[C@@H](O)[C@@]1(C)OC(=O)N(CCCCN=[N+]=[N-])[C@@H]1[C@@H](C)NC[C@H](C)C[C@@](C)(OC)[C@H](O[C@@H]1OC(C)CC(N(C)C)C1OC(=O)OC)[C@@H](C)C1=C(C)C(=O)OC(C)(C)O1, toluene, 3.97 mM, 111.0 °C, 40.0 h): 92%
